Results published in ChEMBL document CHEMBL1158270, “Triangulynes A-H and trangulynic acid, new cytotxic polyacetylenes from the marine sponge Pellina triangulata” (1996).
Calls of active or inactive are those of the source.

What was measured:
Type in all cases: functional
CCRF-CEM = assay: Cytotoxicity against human CCRF-CEM cells
HL-60 = assay: Cytotoxicity against human HL60 cells
K562 = assay: Cytotoxicity against human K562 cells
MOLT-4 = assay: Cytotoxicity against human MOLT4 cells
RPMI-8226 = assay: Cytotoxicity against human RPMI8226 cells
SR = assay: Cytotoxicity against human SR cells
COLO 205 = assay: Cytotoxicity against human COLO205 cells
HCC 2998 = assay: Cytotoxicity against human HCC2998 cells
HCT-116 = assay: Cytotoxicity against human HCT116 cells
HCT-15 = assay: Cytotoxicity against human HCT15 cells
HT-29 = assay: Cytotoxicity against human HT29 cells
KM12 = assay: Cytotoxicity against human KM12 cells
SW-620 = assay: Cytotoxicity against human SW620 cells
LOX IMVI = assay: Cytotoxicity against human LOXIMVI cells
Malme-3M = assay: Cytotoxicity against human MALME-3M cells
M14 = assay: Cytotoxicity against human M14 cells

Measured: Activity

C#C/C=C\[C@H](O)CCCCCCCCCCC/C=C\CCCCCCCCCCC[C@H](O)C#CC#CC#CCO
active: all assays above

C#CC(O)/C=C/CCCCCCCCC/C=C\C#CCCCCCCCCCC#CC#CC#CCO (configuration not stated)
active: all assays above

C#C[C@H](O)/C=C/CCCCCCCC/C=C\CCCCCCCC[C@H](O)C#CC#CC#CCO
active: all assays above

C#C[C@H](O)/C=C/CCCCCCCCC/C=C\C#CCCCCCCCC[C@H](O)C#CC#CC#CCO
active: all assays above

C#C[C@H](O)/C=C/CCCCCCCCC/C=C\C#CCCCCCC[C@H](O)C#CC#CC#CCO
active: all assays above

C#C[C@H](O)/C=C/CCCCCCCCCC/C=C\CCCCCCCC[C@H](O)C#CC#CC#CCO
active: all assays above

C#C[C@H](O)/C=C/CCCCCCCCCCCC/C=C\CCCCCCCCCCCCCC[C@H](O)C#CC#CC#CCO
active: all assays above
